ChEMBL document CHEMBL1201862, “PubChem BioAssay data set” (2004)
Calls of active or inactive are those of the source.

What was measured:
Vero = assay: inhibition of WNV-induced cytopathic effect – cell-based, CPE readout (AID 1621); format: functional; settings: Chlorocebus sabaeus
[1] = Trypanosoma cruzi growth suppression in host cells – NIH3T3 host cells, beta-gal luminescence, confirmation (AID 2044); format: functional, cell-based;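 note: intracellular parasites grown in NIH/3T3 mouse fibroblasts as host cells; luminescent beta-galactosidase reporter signal from transgenic T. cruzi replicating inside host cells; inhibitors lower the luminescence signal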
[2] = NIH3T3 cell viability loss – ATP luminescence, mouse fibroblasts, counter-screen, dose response (AID 2010); format: functional, cell-based;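 note: cells exposed to compound for about 90 hours before reading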
[3] = target: Photoreceptor-specific nuclear receptor (Homo sapiens, UniProt Q9Y5X4); assay: ligands suppressing NR2E3 nuclear receptor activity – biochemical, TR-FRET, dose response (AID 463256); format: functional
Photoreceptor-specific nuclear receptor, sequence (Q9Y5X4 whole entry): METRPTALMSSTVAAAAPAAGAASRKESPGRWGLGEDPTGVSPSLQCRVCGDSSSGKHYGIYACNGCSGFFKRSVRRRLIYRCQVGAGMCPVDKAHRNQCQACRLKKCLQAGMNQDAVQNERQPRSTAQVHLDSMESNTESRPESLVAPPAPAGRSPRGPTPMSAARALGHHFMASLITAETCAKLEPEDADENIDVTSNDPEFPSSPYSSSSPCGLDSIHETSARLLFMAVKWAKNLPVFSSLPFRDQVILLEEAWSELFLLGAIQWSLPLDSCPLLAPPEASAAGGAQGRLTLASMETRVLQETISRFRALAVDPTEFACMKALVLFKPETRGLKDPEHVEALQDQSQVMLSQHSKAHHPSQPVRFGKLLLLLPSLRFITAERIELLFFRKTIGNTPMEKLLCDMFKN

[4] = target: Peroxisome proliferator-activated receptor gamma/Nuclear receptor corepressor 2 (Homo sapiens, UniProt P37231+Q9Y618); assay: Counterscreen for NR2E3 inverse agonists: TR-FRET-based biochemical high throughput dose response assay to identify inverse agonists of the interaction between peroxisome proliferator-activated receptor gamma (PPARg) and nuclear receptor co-repressor 2 (NCOR2).; format: functional
Peroxisome proliferator-activated receptor gamma/Nuclear receptor corepressor 2, sequence (P37231 whole entry): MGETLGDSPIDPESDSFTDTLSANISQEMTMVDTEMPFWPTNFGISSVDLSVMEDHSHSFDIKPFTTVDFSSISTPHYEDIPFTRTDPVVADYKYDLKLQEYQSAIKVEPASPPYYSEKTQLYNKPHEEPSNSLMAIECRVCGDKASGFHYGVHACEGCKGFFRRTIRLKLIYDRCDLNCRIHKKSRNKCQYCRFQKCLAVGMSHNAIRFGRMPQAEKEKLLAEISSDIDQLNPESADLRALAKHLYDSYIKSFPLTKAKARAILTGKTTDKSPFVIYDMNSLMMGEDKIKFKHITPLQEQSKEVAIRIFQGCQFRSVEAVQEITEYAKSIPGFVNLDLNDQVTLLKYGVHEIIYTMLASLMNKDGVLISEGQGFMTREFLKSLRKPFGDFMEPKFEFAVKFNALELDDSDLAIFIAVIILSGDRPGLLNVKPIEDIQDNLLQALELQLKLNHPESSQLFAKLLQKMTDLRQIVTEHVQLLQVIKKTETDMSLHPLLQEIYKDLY
Peroxisome proliferator-activated receptor gamma/Nuclear receptor corepressor 2, sequence (Q9Y618 whole entry): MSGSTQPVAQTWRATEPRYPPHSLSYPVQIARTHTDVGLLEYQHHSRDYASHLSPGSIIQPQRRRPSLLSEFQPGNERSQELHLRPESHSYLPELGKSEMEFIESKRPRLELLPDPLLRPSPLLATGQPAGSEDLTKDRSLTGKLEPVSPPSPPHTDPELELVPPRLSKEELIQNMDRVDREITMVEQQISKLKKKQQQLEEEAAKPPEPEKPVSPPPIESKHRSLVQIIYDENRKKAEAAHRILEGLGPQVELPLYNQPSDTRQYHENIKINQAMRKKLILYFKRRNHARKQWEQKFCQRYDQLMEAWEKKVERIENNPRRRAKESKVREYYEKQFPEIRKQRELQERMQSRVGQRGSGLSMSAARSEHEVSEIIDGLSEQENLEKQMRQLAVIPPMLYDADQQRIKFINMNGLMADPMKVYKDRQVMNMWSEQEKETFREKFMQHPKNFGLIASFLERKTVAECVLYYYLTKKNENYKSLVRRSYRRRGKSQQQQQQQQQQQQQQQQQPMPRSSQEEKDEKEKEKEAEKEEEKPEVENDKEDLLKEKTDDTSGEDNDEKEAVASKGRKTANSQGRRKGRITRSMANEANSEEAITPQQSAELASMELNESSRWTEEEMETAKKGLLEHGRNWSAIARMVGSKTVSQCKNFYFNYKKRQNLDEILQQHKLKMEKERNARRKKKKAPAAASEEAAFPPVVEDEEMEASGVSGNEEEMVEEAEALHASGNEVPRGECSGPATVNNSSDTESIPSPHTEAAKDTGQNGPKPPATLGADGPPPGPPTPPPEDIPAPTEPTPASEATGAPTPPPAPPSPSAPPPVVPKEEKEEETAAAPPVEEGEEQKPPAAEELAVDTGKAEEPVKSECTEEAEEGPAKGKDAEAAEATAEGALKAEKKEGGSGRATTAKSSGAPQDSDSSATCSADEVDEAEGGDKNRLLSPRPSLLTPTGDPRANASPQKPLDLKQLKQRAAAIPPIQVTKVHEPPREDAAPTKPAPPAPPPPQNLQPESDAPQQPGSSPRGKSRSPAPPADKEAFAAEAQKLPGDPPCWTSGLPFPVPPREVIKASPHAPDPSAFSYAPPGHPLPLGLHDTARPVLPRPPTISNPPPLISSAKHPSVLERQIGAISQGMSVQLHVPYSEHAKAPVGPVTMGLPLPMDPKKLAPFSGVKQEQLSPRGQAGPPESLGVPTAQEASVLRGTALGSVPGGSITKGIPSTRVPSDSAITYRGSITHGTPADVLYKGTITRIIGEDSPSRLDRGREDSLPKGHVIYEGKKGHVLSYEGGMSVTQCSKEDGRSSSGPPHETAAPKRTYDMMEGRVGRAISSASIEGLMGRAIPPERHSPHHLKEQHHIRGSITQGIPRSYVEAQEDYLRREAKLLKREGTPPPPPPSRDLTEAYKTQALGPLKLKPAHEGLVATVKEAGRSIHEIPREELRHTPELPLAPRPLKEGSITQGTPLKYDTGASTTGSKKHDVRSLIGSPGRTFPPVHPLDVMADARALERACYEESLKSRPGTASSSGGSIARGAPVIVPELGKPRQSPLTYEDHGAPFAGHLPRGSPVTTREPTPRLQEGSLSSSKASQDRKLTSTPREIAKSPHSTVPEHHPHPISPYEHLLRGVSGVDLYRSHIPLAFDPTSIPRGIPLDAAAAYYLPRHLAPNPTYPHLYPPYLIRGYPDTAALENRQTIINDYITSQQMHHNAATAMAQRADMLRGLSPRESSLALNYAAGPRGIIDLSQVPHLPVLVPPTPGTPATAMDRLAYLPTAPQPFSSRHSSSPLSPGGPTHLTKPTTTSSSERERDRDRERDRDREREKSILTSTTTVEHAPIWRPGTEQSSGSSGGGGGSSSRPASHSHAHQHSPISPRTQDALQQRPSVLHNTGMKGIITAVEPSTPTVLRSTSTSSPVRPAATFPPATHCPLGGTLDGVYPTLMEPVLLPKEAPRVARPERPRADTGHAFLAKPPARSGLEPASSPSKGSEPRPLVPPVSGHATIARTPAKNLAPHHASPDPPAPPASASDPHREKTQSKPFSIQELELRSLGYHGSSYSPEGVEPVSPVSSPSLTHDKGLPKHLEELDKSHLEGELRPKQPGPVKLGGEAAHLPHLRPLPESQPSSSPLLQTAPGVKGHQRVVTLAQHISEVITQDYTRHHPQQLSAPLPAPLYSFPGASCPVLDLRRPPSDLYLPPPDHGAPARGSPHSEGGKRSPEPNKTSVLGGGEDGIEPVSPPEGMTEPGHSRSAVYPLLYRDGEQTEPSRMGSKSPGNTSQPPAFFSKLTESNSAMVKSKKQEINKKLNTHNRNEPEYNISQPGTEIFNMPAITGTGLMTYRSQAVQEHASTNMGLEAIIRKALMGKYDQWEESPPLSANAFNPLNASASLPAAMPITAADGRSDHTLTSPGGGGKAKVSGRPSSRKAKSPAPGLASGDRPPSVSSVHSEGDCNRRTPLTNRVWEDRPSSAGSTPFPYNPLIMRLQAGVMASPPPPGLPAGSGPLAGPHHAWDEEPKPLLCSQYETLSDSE

[5] = blockers of bursicon-stimulated LGR2 cAMP reporter – cell-based, HEK293, CRE-luciferase reporter, cherry pick, set 2, dose response (AID 743343); format: functional;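 note: transfected cells were stimulated with diluted bursicon conditioned medium after compound addition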
INS1 = assay: INS-1E survival protection against cytokine death – cell-based, luminescence, retest, dose response (AID 449756); format: functional; settings: Rattus norvegicus;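 note: cell death triggered by IL-1 beta plus TNF-alpha plus IFN-gamma mixture; protective hits raise ATP signal compared with cytokine alone wells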
[6] = A549 cell cytotoxicity, dose response, cytotoxicity control, plate reader, cherry-pick, antagonist series (AID 743412); format: functional, cell-based
[7] = blockade of melanocortin 4 receptor signaling – cell-based, plate reader, cherry pick, counter-screen for LGR2 antagonist project, dose response (AID 743444); format: functional;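 note: transfected HEK 293 cells stimulated with alpha-MSH peptide; potency of inhibitors of the alpha-MSH evoked signal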
[8] = toxicity toward HepG2 liver cells – cell-based, plate reader, cherry-pick, antagonist series, cytotoxicity control, dose response (AID 743416); format: functional
[9] = reduced cellular PGC1a acetyl-lysine signal – cell-based, cherry-picked samples, dose response (AID 720514); format: functional;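 note: potency may reflect raised or lowered acetylation signal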
[10] = target: Sphingosine 1-phosphate receptor 1 (Homo sapiens, UniProt P21453); format: functional;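 note: Tango beta-arrestin reporter U2OS cells stimulated with S1P near its EC80; inhibitor potency meaning antagonism of receptor activation by the natural agonist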
Sphingosine 1-phosphate receptor 1, sequence (P21453 whole entry): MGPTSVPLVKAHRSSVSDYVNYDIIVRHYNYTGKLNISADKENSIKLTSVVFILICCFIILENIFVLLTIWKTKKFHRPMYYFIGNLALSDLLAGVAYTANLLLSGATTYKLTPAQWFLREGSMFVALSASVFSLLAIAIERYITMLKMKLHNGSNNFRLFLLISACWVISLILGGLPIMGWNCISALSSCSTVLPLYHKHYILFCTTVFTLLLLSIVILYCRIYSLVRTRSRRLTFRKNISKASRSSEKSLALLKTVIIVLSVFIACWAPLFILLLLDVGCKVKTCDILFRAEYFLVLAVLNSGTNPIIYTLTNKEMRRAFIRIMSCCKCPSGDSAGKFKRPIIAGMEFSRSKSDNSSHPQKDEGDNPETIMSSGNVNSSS

[11] = viability loss in HEK293 cells – cell-based, plate reader, cherry-picked samples, cytotoxicity control, dose response (AID 743446); format: functional
[12] = Luminescent dose response cell-based high throughput screening assay for inhibitors of the Janus kinase 2 mutant JAK2V617F. [Related pubchem assays: 1446 (Primary screen.), 1521 (Confirmation assay.), 1486 (Counter screen.)]; format: functional
[13] = target: Heat shock protein HSP 90-alpha (Homo sapiens, UniProt P07900); format: functional, organism-based
[14] = target: T1, Sphingosine 1-phosphate receptor 4 (Homo sapiens, UniProt O95977); assay: Late stage fluorescence dose response cell-based screening assay for antagonists of the Sphingosine 1-Phosphate Receptor 4 (S1P4). [Related pubchem assays: 1524 (Confirmation screen (S1P4 antagonists).), 1510 (Primary screen (S1P4 antagonists).), 1853 (Summary AID (S1P4 antagonists).), 1692 (Dose response screen (S1P4 antagonists).)]; format: functional
T1 sequence (O95977 whole entry): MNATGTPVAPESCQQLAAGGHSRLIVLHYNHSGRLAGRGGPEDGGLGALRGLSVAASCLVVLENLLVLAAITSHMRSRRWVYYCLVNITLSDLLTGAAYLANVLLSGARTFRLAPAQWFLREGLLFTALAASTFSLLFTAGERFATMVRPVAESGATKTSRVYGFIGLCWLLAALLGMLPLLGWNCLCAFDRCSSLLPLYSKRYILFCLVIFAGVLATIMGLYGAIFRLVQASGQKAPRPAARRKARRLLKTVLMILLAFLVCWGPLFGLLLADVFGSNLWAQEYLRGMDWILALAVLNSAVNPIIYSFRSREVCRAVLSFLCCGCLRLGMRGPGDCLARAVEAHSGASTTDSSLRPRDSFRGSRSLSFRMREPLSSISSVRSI

[15] = target: T1, Sphingosine 1-phosphate receptor 4; assay: Fluorescence dose response cell-based high throughput screening assay for antagonists of the Sphingosine 1-Phosphate Receptor 4 (S1P4). [Related pubchem assays: 1524 (Confirmation in triplicates.), 1510 (Primary screen.)]; format: functional
[16] = THP-1 cell cytotoxicity, dose response, cytotoxicity control for non-replicating M. tuberculosis project (AID 489025); format: functional
[17] = target: T2, High affinity choline transporter 1 (Homo sapiens, UniProt Q9GZV3); assay: human choline transporter blockers, potency – cell-based, 5-point CRC, membrane potential dye, dose response (AID 504840); format: functional
T2 sequence (Q9GZV3 whole entry): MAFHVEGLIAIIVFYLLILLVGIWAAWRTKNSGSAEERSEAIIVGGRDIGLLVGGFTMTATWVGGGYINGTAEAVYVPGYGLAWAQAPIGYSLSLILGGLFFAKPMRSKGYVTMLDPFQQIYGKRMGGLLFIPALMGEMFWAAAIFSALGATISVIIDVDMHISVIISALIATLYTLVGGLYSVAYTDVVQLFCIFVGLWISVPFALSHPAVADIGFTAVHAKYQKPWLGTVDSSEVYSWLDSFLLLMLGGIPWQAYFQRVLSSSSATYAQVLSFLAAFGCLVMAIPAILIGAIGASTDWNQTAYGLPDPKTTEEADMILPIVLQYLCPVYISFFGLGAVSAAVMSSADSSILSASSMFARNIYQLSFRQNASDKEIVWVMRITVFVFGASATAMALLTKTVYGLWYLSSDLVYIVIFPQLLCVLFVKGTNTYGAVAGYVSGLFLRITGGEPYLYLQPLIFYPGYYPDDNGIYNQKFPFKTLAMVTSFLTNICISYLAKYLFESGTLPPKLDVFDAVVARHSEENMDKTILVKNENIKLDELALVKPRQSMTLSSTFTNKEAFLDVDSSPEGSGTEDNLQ

[18] = Luminescence Cell-Based Dose Confirmation HTS to Identify Inhibitors of Platelet Dense Granule Release. [Related pubchem assays: 1663 (Primary HTS), 1678 (Summary of Project)]; format: functional
[19] = Fluorescence Cell-Based Dose Response to Identify Inhibitors of Thrombin Receptor-Activating Peptide SFLLRN-Mediated P-Selectin Induction on Platelets. [Related pubchem assays: 1663 (Primary HTS), 1889 (retest at dose ), 1891 (counterscreen), 1678 (Project Summary)]; format: functional
[20] = target: Luciferin 4-monooxygenase (Photinus pyralis, UniProt P08659); assay: inhibition of purified Photinus pyralis luciferase – biochemical, luminescence, dose response (AID 1891)
Luciferin 4-monooxygenase, sequence (P08659 whole entry): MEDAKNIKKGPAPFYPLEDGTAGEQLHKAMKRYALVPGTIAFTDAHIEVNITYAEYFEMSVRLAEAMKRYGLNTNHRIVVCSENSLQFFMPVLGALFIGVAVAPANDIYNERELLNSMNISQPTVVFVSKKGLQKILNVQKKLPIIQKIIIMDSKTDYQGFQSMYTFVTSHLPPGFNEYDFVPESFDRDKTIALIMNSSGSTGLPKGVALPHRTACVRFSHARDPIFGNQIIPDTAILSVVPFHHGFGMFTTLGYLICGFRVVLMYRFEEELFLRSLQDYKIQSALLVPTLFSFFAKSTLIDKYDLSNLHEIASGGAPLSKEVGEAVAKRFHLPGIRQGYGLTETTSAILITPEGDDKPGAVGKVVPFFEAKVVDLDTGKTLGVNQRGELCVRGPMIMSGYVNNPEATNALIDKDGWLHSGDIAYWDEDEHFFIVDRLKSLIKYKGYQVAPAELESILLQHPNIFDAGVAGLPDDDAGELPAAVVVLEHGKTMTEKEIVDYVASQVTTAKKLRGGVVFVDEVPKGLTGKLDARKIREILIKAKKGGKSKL

[21] = target: T3, Replicative DNA helicase DnaB (Mycobacterium tuberculosis, UniProt P9WMR3); assay: DnaB intein splicing inhibitors, dose response, biochemical, cell-free fluorescence (AID 449749); format: functional
T3 sequence (P9WMR3 whole entry): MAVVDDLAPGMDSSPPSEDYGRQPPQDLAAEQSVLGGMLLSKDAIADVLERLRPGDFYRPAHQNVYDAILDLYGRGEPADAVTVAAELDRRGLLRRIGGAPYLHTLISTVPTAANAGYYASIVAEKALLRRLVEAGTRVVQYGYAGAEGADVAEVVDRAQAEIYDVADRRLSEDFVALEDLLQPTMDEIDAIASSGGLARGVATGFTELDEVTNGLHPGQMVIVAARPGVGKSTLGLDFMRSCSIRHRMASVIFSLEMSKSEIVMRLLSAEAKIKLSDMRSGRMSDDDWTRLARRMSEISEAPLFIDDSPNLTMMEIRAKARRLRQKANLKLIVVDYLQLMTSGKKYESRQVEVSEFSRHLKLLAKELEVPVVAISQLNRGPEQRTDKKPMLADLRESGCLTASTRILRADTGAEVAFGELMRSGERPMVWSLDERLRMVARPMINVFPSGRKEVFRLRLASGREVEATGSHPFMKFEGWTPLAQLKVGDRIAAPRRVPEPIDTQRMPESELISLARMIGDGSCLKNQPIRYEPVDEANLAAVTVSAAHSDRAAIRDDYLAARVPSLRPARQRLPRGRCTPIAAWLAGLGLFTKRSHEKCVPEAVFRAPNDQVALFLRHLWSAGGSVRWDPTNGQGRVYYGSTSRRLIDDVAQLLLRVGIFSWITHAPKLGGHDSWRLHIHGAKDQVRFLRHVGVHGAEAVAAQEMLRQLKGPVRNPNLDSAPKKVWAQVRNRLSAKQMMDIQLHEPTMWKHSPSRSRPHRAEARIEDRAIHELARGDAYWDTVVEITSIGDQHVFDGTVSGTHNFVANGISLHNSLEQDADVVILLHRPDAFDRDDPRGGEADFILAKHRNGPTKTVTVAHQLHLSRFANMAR

[22] = target: T4, Mannose-6-phosphate isomerase (Homo sapiens, UniProt P34949); assay: MPI inhibition at elevated mannose 6-phosphate – biochemical, fluorescence intensity, high mannose 6-phosphate, primary screen (AID 1220)
T4 sequence (P34949 whole entry): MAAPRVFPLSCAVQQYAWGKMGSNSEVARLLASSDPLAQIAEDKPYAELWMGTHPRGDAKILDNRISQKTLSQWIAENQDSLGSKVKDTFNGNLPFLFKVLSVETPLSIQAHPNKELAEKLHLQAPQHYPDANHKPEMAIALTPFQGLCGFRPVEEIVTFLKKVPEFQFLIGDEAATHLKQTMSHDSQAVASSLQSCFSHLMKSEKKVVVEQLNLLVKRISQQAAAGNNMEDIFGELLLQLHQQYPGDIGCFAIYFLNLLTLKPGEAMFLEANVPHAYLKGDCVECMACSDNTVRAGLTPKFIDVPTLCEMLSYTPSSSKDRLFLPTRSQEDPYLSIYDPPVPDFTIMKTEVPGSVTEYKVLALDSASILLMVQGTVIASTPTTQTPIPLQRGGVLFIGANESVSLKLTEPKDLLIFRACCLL

Heat shock protein HSP90 = Heat shock protein HSP90 (Homo sapiens, UniProt P07900+P08238); assay: Hsp90 blockade concentration-response – dose response (AID 712); format: functional
Protein RecA = target: T5, Protein RecA (Mycobacterium tuberculosis, UniProt P9WHJ3); assay: Fluorescence Cell-Free Homogeneous Dose Retest to Identify Inhibitors of RecA-Intein Splicing Activity. [Related pubchem assays (depositor defined):AID2097, AID2223, AID489010, AID492950]; format: functional
T5 sequence (P9WHJ3 whole entry): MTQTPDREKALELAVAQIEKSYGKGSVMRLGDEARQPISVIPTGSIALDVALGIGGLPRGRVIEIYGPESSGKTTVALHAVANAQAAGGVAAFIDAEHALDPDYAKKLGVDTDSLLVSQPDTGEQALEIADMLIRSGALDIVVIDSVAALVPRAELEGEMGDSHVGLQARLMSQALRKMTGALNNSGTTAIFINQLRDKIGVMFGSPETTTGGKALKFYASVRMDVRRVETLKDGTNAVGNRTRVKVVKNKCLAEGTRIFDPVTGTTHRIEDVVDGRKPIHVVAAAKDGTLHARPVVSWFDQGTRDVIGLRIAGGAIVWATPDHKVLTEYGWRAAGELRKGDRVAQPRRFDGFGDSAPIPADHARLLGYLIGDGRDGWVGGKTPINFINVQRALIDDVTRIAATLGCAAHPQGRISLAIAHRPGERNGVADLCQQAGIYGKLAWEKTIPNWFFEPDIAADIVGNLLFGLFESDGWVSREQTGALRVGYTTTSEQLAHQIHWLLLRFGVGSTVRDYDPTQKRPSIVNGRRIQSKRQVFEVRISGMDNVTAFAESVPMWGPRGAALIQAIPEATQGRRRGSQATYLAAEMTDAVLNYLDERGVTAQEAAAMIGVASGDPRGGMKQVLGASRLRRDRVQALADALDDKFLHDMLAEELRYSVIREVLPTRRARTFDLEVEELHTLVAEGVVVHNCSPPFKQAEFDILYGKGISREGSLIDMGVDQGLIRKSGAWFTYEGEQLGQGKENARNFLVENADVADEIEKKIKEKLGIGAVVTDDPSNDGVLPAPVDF

[23] = target: Voltage-gated inwardly rectifying potassium channel KCNH2 (Homo sapiens, UniProt Q12809); assay: concentration-dependent hERG rescue from blockers – cell-based, thallium flux, dose response (AID 2121); format: ADME

Structure (SMILES): CCN1CCN(c2ccc(S(=O)(=O)N3CCCCC3)cc2NC(=O)Cc2c(Cl)cccc2Cl)CC1
- IC50 (Vero): 27.1 µM (active)
- EC50 [1]: < 0.1 µM (active)
- EC50 (cells): 0.06 µM (active)
- EC50 [2]: 49.2 µM (active)

Structure (SMILES): Cc1ccc2[nH]c(CCN(C)C)c(CN3CCOCC3)c2c1
- IC50 [3]: 6.09 µM (active)
- IC50 [4]: 10.7 µM (not active)

Structure (SMILES): COc1ccc([N+](=O)[O-])c(S(=O)(=O)c2ccc(Cl)cc2)n1
- AC50 [5]: 2.64 µM (active)
- AC50 (INS1): 6.17 µM (active)
- AC50 [6]: 7.69 µM (active)
- AC50 [7]: 3.78 µM (active)
- AC50 [8]: 7.08 µM (active)
- AC50 [9]: 8.16 µM (active)
- IC50 [10]: 4.73 µM (active)
- AC50 [11]: 10 µM (active)
- IC50 [12]: 0.81 µM (active)
- AC50 [13]: 0.753 µM (active)
- IC50 [14]: 1.15 µM (not active)
- IC50 [15]: 0.391 µM (active)
- CC50 [16]: 38.1 µM (active)
- IC50 [17]: 11 µM (active)

Structure (SMILES): COc1ccccc1C(=O)Nc1cnc(O)nc1O
- EC50 [18]: 0.25 µM (active)
- EC50 [19]: < 0.3 µM (active)
- EC50 [20]: > 112 µM (not active)

Structure (SMILES): Oc1ccc(/C=N/c2ccc3ncccc3c2)c(O)c1
- AC50 [21]: 11.5 µM (active)
- IC50 [22]: > 50 µM (not active)
- IC50 (Heat shock protein HSP90): > 50 µM
- EC50 (Protein RecA): 29 µM (active)

Structure (SMILES): COC(=O)c1ccc(CSc2ncnc3sc(C)c(C)c23)o1
- EC50 [23]: 11.1 µM (active)
